Measured values: patent USRE39061E1, “Pharmaceutical formulations comprising labdanes for the treatment of tumors or leukemias” (Medexis S.A., priority 1999, dated 2006)

Legend:
CCRF-CEM = experiment: Cytotoxic activity, MTT method, 48 h; assay type: cell-based; conditions: for GI50 / TGI: CCRF-CEM, 48 h, MTT
Protocol: (§1) Human cancer cell lines were used for in vitro drug testing. The cells were maintained as exponentially proliferating suspension cultures in RPMI-1640 medium (supplemented with 10% heat inactivated foetal calf serum, 2mM L-Glutamine and 50 μg/ml gentamycin and incubated at 37° C., in a humidified atmosphere with 5% CO2. Peripheral blood mononuclear cells (PBML) were also isolated from normal donors using the Ficoll-Hypaque method and cultured as the cancer cell lines.
(§2) To determine the cytotoxicity, log-phase cells from each cell line, resting and activated PBML (1×10^6 cells/ml), were incubated with free compound or liposomal formulation for 48 h, in 96-well flat-bottomed micro plates.
(§3) The initial inoculation densities for each cell line are presented in table (1) and were determined taking into account cell mass and growth rate (Monks A., Scudiero, D., Skehan P., Shomaker R., Pauli K., Vistica D., Hose C et al. Feasibility of a High-Flux Anticancer Drug screen using a diverse panel of cultured human tumor cell lines. JNCI 1991; 83(11): 757-766 Paul K D, Shomaker R H, Hodes L, Monks A, Scudiero D A, Rubinstein L., Plowman J and Boyd M R. Tumor Cell Lines: Development of Mean Graph and Compare Algorithm. JNCI 1989; 81(14): 1088-1092). Viability of the cells was assessed by trypan blue dye exclusion, at the beginning of the experiment and was always greater than 98%.
(§4) Cells were added at the appropriate inoculation densities in 96-well micro titer plates and preincubated for 24 hours in a moist atmosphere of 5% CO2 in air at 37 °C, to allow stabilization prior to addition of the test compounds. To determine their activity, the free compound or liposomal formulation were added at the same time to each cell line. Cultures, where an equivalent amount of DMSO was added, used as controls. After the addition of the test agents the cells were cultured in micro plates for an additional 48 h under the same conditions. Each test agent was inoculated at five concentrations (10−4 to 10−8 M). The activity for each compound on each cell line was determined by the MTT method with modifications. Briefly 4 h before the end of the 48 h incubation period, MTT (3-(4,5-dimethylthiazol-2-yl)-2-5 diphenyl tetrazolium bromide, Sigma-Aldrich) dissolved in PBS (Phosphate buffered saline), was added in the cell cultures to give a final concentration of 50 μg/ml. At the end of the 48 h incubation period, DMSO was added to the wells and the optical density was measured with an ANTHOS HT II Microelisa reader, using a test wavelength of 550 nm.
(§5) The data represent the means of experiments done in triplicates and were analyzed using a two-tailed Student's t-test.
(§6) Three parameters GI50, TGI and LC50 were estimated using the MTT method. […] TGI is the concentration of the test agent where 100*(T−T0)/(C−TO)=0 and measures the cytostatic effect. Finally LC50 is the concentration of the drug where 100*(T−TO)/TO=−50 and measures the cytotoxic effect of the drug. At the above formulas used for the calculation of the three parameters, T is the optical density of the test well after a 48 h period of exposure to test compound; TO is the optical density at the time zero (when the drug is added) and C is the optical density of the control well (cells incubated for 48 h with no additives).
(§7) The leukemic cell lines CCRF-CEM, MOLT4, HUT78 (T cells), RPMI 8226 (B cell line), HL60 (promyelocytic cell line), K562 (proerythrocytes) and the multi-drug resistant (MDR) cell lines: CCRF-CEM/C2, HL60/MXl and HL601MX2 were used. All cell lines were grown and tested for viability as described above. Free compounds and encapsulated (as described above) were tested according to the method described under cytotoxic activity (see Biological activity, above).

HL60 = experiment: Cytotoxic activity, MTT method, 48 h; assay type: cell-based; conditions: for GI50 / TGI: HL60, 48 h, MTT
Protocol: as §1, §2, §3, §4, §5, §6, §7

HUT78 = experiment: Cytotoxic activity, MTT method, 48 h; assay type: cell-based; conditions: for GI50 / TGI: HUT78, 48 h, MTT
Protocol: as §1, §2, §3, §4, §5, §6, §7

K562 = experiment: Cytotoxic activity, MTT method, 48 h; assay type: cell-based; conditions: for GI50 / TGI: K562, 48 h, MTT
Protocol: as §1, §2, §3, §4, §5, §6, §7

MOLT4 = experiment: Cytotoxic activity, MTT method, 48 h; assay type: cell-based; conditions: for GI50 / TGI: MOLT4, 48 h, MTT
Protocol: as §1, §2, §3, §4, §5, §6, §7

RPMI 8226 = experiment: Cytotoxic activity, MTT method, 48 h; assay type: cell-based; conditions: for GI50 / TGI: RPMI 8226, 48 h, MTT
Protocol: as §1, §2, §3, §4, §5, §6, §7

CCRF-CEM/C2 = assay type: cell-based; conditions: for GI50 / TGI: CCRF-CEM/C2 (MDR), 48 h, MTT
Protocol: as §1, §2
as §3, with “1088-1092).” for “1088-1092). Viability of the cells was assessed by trypan blue dye exclusion, at the beginning of the experiment and was always greater than 98%.”
as §4, §5, §6, §7
(§8) The Resistant Factor (RF) is defined as follows: GI50 of the MDR daughter cell line/GI50 of the parental cell line. The (−) represents a parental cell line more resistant than the daughter MDR line.

HL60/MX1 = assay type: cell-based; conditions: for GI50 / TGI: HL60/MX1 (MDR), 48 h, MTT
Protocol: as §1, §2
as §3, with “1088-1092).” for “1088-1092). Viability of the cells was assessed by trypan blue dye exclusion, at the beginning of the experiment and was always greater than 98%.”
as §4, §5, §6, §7, §8

HL601/MX2 = assay type: cell-based; conditions: for GI50 / TGI: HL601/MX2 (MDR), 48 h, MTT
Protocol: as §1, §2
as §3, with “1088-1092).” for “1088-1092). Viability of the cells was assessed by trypan blue dye exclusion, at the beginning of the experiment and was always greater than 98%.”
as §4, §5, §6, §7, §8

[1] = system: leukemic cell lines (MEAN); experiment: Cytotoxic activity, MTT method, mean over the leukemic cell lines; assay type: cell-based; conditions: for GI50 / TGI: MEAN of the nine leukemic cell lines
Protocol: as §1, §2, §3, §4, §5, §6, §7

PBML (resting) = assay type: cell-based, human; conditions: for GI50 / TGI: normal PBML, resting, 48 h, MTT
Protocol: as §1, §2, §4, §5, §6, §7

PBML (stimulating) = assay type: cell-based, human; conditions: for GI50 / TGI: normal PBML, activated by 5 μg/ml PHA-P, 48 h, MTT
Protocol: as §1, §2, §4, §5, §6, §7

MCF-7 (Breast cancer) = experiment: Growth percentages at 100 μM; assay type: cell-based, human
Protocol: as §1, §4
(§9) Three parameters GI50, TGI and LC50 were estimated using the MTT method. […] TGI is the concentration of the test agent where 100*(T−T0)/(C−TO)=0 and measures the cytostatic effect. Finally LC50 is the concentration of the drug where 100*(T−TO)/TO=−50 and measures the cytotoxic effect of the drug. […]

NCI-H460 (Lung cancer) = experiment: Growth percentages at 100 μM; assay type: cell-based, human
Protocol: as §1, §4, §9

SF-268 (CNS cancer) = experiment: Growth percentages at 100 μM; assay type: cell-based, human
Protocol: as §1, §4, §9

With `CC(=O)OCC=C(C)CC[C@@H]1[C@@]2(C)CCCC(C)(C)[C@@H]2CC[C@@]1(C)O` [Label-13-ene-8, 15-yl acetate, labd-13-ene,8α-ol,15-yl acetate] the CC50 (CCRF-CEM) was 187 µM, the GI50 (CCRF-CEM) was 69.1 µM and the TGI (CCRF-CEM) was 128.17 µM. It also gave a CC50 (HL60) of 89.3 µM, a GI50 (HL60) of 44.8 µM and a TGI (HL60) of 67.04 µM. For the same compound, the CC50 (HUT78) was 200 µM, the GI50 (HUT78) was 95.2 µM and the TGI (HUT78) was 164.00 µM. The CC50 (K562) was 200 µM, the GI50 (K562) was 78.2 µM and the TGI (K562) was 162.00 µM. It also gave a CC50 (MOLT4) of 137 µM, a GI50 (MOLT4) of 42.8 µM and a TGI (MOLT4) of 89.95 µM. For the same compound, the CC50 (RPMI 8226) was 95.5 µM, the GI50 (RPMI 8226) was 41.3 µM and the TGI (RPMI 8226) was 68.43 µM. It also gave a CC50 (CCRF-CEM/C2) of 111 µM, a GI50 (CCRF-CEM/C2) of 46.8 µM and a TGI (CCRF-CEM/C2) of 78.83 µM. The CC50 (HL60/MX1) was 106 µM, the GI50 (HL60/MX1) was 53.9 µM and the TGI (HL60/MX1) was 80.14 µM. For the same compound, the CC50 (HL601/MX2) was 101 µM, the GI50 (HL601/MX2) was 38.8 µM and the TGI (HL601/MX2) was 69.90 µM. It also gave a CC50 [1] of 136 µM, a GI50 [1] of 56.8 µM and a TGI [1] of 100.94 µM. For the same compound, the CC50 (PBML (resting)) was greater than 100 µM, the GI50 (PBML (resting)) was greater than 100 µM and the TGI (PBML (resting)) was >>100 μM. The CC50 (PBML (stimulating)) was greater than 100 µM, the GI50 (PBML (stimulating)) was 65.9 µM and the TGI (PBML (stimulating)) was >>100 μM.

Work on `CC(=CCO)CC[C@@H]1[C@@]2(C)CCCC(C)(C)[C@@H]2CC[C@@]1(C)O` [Label-13-ene-8, 15 diol, labd-13-ene-8α,15-diol] yielded a CC50 (CCRF-CEM) of 200 µM, a GI50 (CCRF-CEM) of 75.7 µM and a TGI (CCRF-CEM) of 141.08 µM. It also gave a CC50 (HL60) of 91.8 µM, a GI50 (HL60) of 47.7 µM and a TGI (HL60) of 69.74 µM. For the same compound, the CC50 (HUT78) was 200 µM, the GI50 (HUT78) was 109 µM and the TGI (HUT78) was 186 µM. The CC50 (K562) was 200 µM, the GI50 (K562) was 87.1 µM and the TGI (K562) was 159 µM. It also gave a CC50 (MOLT4) of 120 µM, a GI50 (MOLT4) of 32.3 µM and a TGI (MOLT4) of 76.22 µM. It also gave a CC50 (RPMI 8226) of 118 µM, a GI50 (RPMI 8226) of 42.2 µM and a TGI (RPMI 8226) of 80.08 µM. The CC50 (CCRF-CEM/C2) was 108 µM, the GI50 (CCRF-CEM/C2) was 42.3 µM and the TGI (CCRF-CEM/C2) was 74.96 µM. The CC50 (HL60/MX1) was 108 µM, the GI50 (HL60/MX1) was 52.3 µM and the TGI (HL60/MX1) was 80.1 µM. The CC50 (HL601/MX2) was 102 µM, the GI50 (HL601/MX2) was 43.8 µM and the TGI (HL601/MX2) was 73.14 µM. For the same compound, the CC50 [1] was 139 µM, the GI50 [1] was 59.1 µM and the TGI [1] was 104.48 µM. The CC50 (PBML (resting)) was greater than 100 µM, the GI50 (PBML (resting)) was greater than 100 µM and the TGI (PBML (resting)) was >>100 μM. For the same compound, the CC50 (PBML (stimulating)) was greater than 100 µM, the GI50 (PBML (stimulating)) was 66.2 µM and the TGI (PBML (stimulating)) was >>100 μM. For the same compound, the “Growth Percentages” value (MCF-7 (Breast cancer)) was −89%, the “Growth Percentages” value (NCI-H460 (Lung cancer)) was −80% and the “Growth Percentages” value (SF-268 (CNS cancer)) was −88%.

`C=C[C@](C)(O)CC[C@@H]1[C@@]2(C)CCCC(C)(C)[C@@H]2CC[C@@]1(C)O` [Label-14-ene-8, 13 diol, labd-14-ene-8,13-diol] gave a CC50 (CCRF-CEM) of 85 µM, a GI50 (CCRF-CEM) of 35 µM and a TGI (CCRF-CEM) of 60.00 µM. The CC50 (HL60) was 80 µM, the GI50 (HL60) was 41.5 µM and the TGI (HL60) was 60.72 µM. It also gave a CC50 (HUT78) of 78.5 µM, a GI50 (HUT78) of 33.7 µM and a TGI (HUT78) of 56.09 µM. For the same compound, the CC50 (K562) was 79.3 µM, the GI50 (K562) was 35.6 µM and the TGI (K562) was 57.45 µM. For the same compound, the CC50 (MOLT4) was 77.7 µM, the GI50 (MOLT4) was 31.6 µM and the TGI (MOLT4) was 54.66 µM. The CC50 (RPMI 8226) was 70.7 µM, the GI50 (RPMI 8226) was 14.9 µM and the TGI (RPMI 8226) was 42.84 µM. For the same compound, the CC50 (CCRF-CEM/C2) was 75.8 µM, the GI50 (CCRF-CEM/C2) was 29.1 µM and the TGI (CCRF-CEM/C2) was 52.41 µM. It also gave a CC50 (HL60/MX1) of 80.9 µM, a GI50 (HL60/MX1) of 42.9 µM and a TGI (HL60/MX1) of 61.90 µM. It also gave a CC50 (HL601/MX2) of 76.8 µM, a GI50 (HL601/MX2) of 31.4 µM and a TGI (HL601/MX2) of 54.12 µM. The CC50 [1] was 78.3 µM, the GI50 [1] was 32.9 µM and the TGI [1] was 55.58 µM. For the same compound, the CC50 (PBML (resting)) was 93.1 µM, the GI50 (PBML (resting)) was 34.6 µM and the TGI (PBML (resting)) was 63.8 µM. It also gave a CC50 (PBML (stimulating)) of 89 µM, a GI50 (PBML (stimulating)) of 33.1 µM and a TGI (PBML (stimulating)) of 61.0 µM.
